Legend:
P. falciparum = test: In vitro antiplasmodial activity, MSF assay, strain not specified or all 3 strains together; type: cell-based, Plasmodium falciparum; conditions: for in vitro antiplasmodial activity (SAR remark in words): compared within the endochin series; for IC50: strain not stated, read-out: IC50 (effect of 3-position side chain length); for reduction of potency relative to ELQ-121: relative to ELQ-121, in vitro testing
Method: (§1) Plasmodium falciparum strains D6 and Dd2 were obtained from the MR4 (ATCC, Manassas, Va., USA). D6 is sensitive to chloroquine but mildly resistant to mefloquine while Dd2 is resistant to multiple quinoline and antifolate antimalarial agents. Tm90.C2B is resistant to atovaquone, chloroquine, mefloquine, and quinine.
Three different laboratory strains of P. falciparum were cultured in human erythrocytes by standard methods under a low oxygen atmosphere (5% O2, 5% CO2, 90% N2) in an environmental chamber as described in Trager, W., and J. B. Jensen. 1976. Human malaria parasites in continuous culture. Science 193:673-5. The culture medium was RPMI-1640, supplemented with 25 mM HEPES buffer, 25 mg/L gentamicin sulfate, 45 mg/L hypoxanthine, 10 mM glucose, 2 mM glutamine, and 0.5% Albumax II (complete medium). The parasites were maintained in fresh human erythrocytes suspended at a 2% hematocrit in complete medium at 37° C. Stock cultures were sub-passaged every 3 to 4 days by transfer of infected red cells to a flask containing complete medium and uninfected erythrocytes.
In vitro antimalarial activity of the compounds was assessed by the SYBR Green I fluorescence-based method (the “MSF assay”) described previously by Smilkstein, M., N. Sriwilaijaroen, J. X. Kelly, P. Wilairat, and M. Riscoe. 2004. Simple and inexpensive fluorescence-based technique for high-throughput antimalarial drug screening. Antimicrob Agents Chemother 48:1803-6 with minor modifications (Winter, R. W., J. X. Kelly, M. J. Smilkstein, R. Dodean, G. C. Bagby, R. K. Rathbun, J. I. Levin, D. Hinrichs, and M. K. Riscoe. 2006. Evaluation and lead optimization of anti-malarial acridones. Exp Parasitol 114:47-56). Experiments were set up in triplicate in 96 well plates (Costar, Corning) with two-fold dilutions of each drug across the plate in a total volume of 100 microliters and at a final red blood cell concentration of 2% (v/v). Stock solutions of each drug were prepared by dissolving in ethanol or dimethylsulfoxide (as appropriate) at 10 mM. […] Automated pipeting and dilution was carried out with the aid of a programmable Precision 2000 robotic station (BioTek, Winooski, Vt.). An initial parasitemia of 0.2% was attained by addition of normal uninfected red cells to a stock culture of asynchronous parasite infected red cells (PRBC). The plates were incubated for 72 hrs at 37° C. in an atmosphere of 5% CO2, 5% O2, and 90% N2. After this period the SYBR Green I dye-detergent mixture (100 μl) was added and the plates were incubated at room temperature for an hour in the dark and then placed in a 96-well fluorescence plate reader (Spectramax Gemini-EM, […]) for analysis with excitation and emission wavelength bands centered at 497 and 520 nm, respectively. The fluorescence readings were plotted against the logarithm of the drug concentration and curve fitting by nonlinear regression analysis (GraphPad Prism software) yielded the drug concentration that produced 50% of the observed decline relative to the maximum readings in drug-free control wells (IC50).
The compounds were screened for antiplasmodial activity in vitro against chloroquine (CQ) sensitive (D6), multidrug resistant (Dd2), and chloroquine/quinine/atovaquone (ATV)-resistant (Tm90.C2B) strains of P. falciparum. […] The following observations on the structure-activity relationships (SAR) can be made: • 1. It may be observed that the length of the 3-position side chain influences the antiplasmodial effect.

[1] = tested on: Plasmodium falciparum strain Tm90.C2B (chloroquine/quinine/atovaquone-resistant); test: In vitro antimalarial activity, MSF assay, strain Tm90.C2B; type: cell-based; conditions: Tm90.C2B compared with the other strains
Method: as §1
(§2) Three different laboratory strains of P. falciparum were cultured in human erythrocytes by standard methods under a low oxygen atmosphere (5% O2, 5% CO2, 90% N2) in an environmental chamber as described in Trager, W., and J. B. Jensen. 1976. Human malaria parasites in continuous culture. Science 193:673-5. […]
(§3) In vitro antimalarial activity of the compounds was assessed by the SYBR Green I fluorescence-based method (the “MSF assay”) described previously by Smilkstein, M., N. Sriwilaijaroen, J. X. Kelly, P. Wilairat, and M. Riscoe. […] Simple and inexpensive fluorescence-based technique for high-throughput antimalarial drug screening. […] After this period the SYBR Green I dye-detergent mixture (100 μl) was added and the plates were incubated at room temperature for an hour in the dark and then placed in a 96-well fluorescence plate reader (Spectramax Gemini-EM, […]) for analysis with excitation and emission wavelength bands centered at 497 and 520 nm, respectively. […]

[2] = Water solubility and vehicle miscibility of the prodrug; type: physicochemical; conditions: prodrug compared with ELQ-121
P. yoelii = test: In vivo efficacy in a murine malaria model of patent infection with P. yoelii (modified Thompson procedure)
Method: The activity of the ester, ELQ-125, against the blood stages was assessed using a modified Thompson procedure (Arba Ager, 1984). Rodent malaria models, vol. 68/1. Springer-Verlag, Berlin. Mice (female, CF1) were infected intravenously with 1-5 million P. yoelii parasitized erythrocytes from a donor animal. […] The drug was administered by gavage once daily for 3 days. On the 4th day blood films were prepared and the extent of parasitemia was determined microscopically. ED50 and ED90 values (mg/kg/day) were derived from the dose required to reduce the parasite burden by 50% and 90%, respectively, relative to drug-free controls. The procedures involved, together with all matters relating to the care and housing of the animals used in this study, were approved by the Portland VA Medical Center Institutional Animal Care and Use Committee (approval #0807).
Prodrugs containing a water-soluble pro-moiety that could be metabolically released after drug administration were designed and synthesized.

[3] = tested on: Toxoplasma gondii strain 2F; test: Anti-T. gondii activity, 2F strain beta-galactosidase assay in HFF cells; type: cell-based; conditions: compared with the correlation seen for P. falciparum
Method: Determination of anti-T. gondii IC50 and TD50 values—use of the 2F strain. This method, which employs tachyzoites of Toxoplasma gondii strain 2F that constitutively expresses cytoplasmic Beta-galactosidase, has been described recently by Jones-Brando et al. (Jones-Brando, L., D'angelo, J., Posner, G H, and Yolken, R., 2006, In vitro inhibition of Toxoplasma gondii by four new derivatives of artemisinin, Antimicrobial Agents and Chemotherapy 50: 4206-8). […] Briefly, each drug was dissolved in ethanol or DMSO, as appropriate, at a concentration of 10 mM and diluted with complete Dulbecco's modified Eagle's medium (DMEM) to 1,000 μM. […] After this period, Triton X-100 is added to inactivate the parasite and the color reactions in the wells were read in a microplate reader. For anti-T. gondii IC50 determinations, the plates are read at 570-650 nm. The amount of absorbance (570-650 nm) in wells containing drug, parasites, and CPRG reagent is compared to that in control wells containing T. gondii, HFF cells and CPRG. The amount of absorbance in these wells is directly proportional to the amount of beta-galactosidase activity and thus correlative to the number of viable tachyzoites in each well. Thus, a decrease in the amount of absorbance indicates an inhibition of parasite growth. […]

[4] = tested on: Plasmodium falciparum strain D6 (chloroquine sensitive); test: In vitro antimalarial activity, SYBR Green I fluorescence-based method (MSF assay), strain D6; type: cell-based; conditions: P. falciparum D6, 72 hrs
Method: as §1, §2, §3

[5] = mice, gavage once daily for 3 days in 100 μl NeoBee M5

Structure (SMILES): CCCCCCCc1c(C)[nH]c2cc(F)ccc2c1=O [ELQ-120]
- in vitro antiplasmodial activity (SAR remark in words) (P. falciparum): only a modest reduction in in vitro potency

Structure (SMILES): COc1ccc2c(=O)c(CCCCCCCCCCC(F)(F)F)c(C)[nH]c2c1 [ELQ-103]
- IC50 values for all 3 tested strains (in words) (P. falciparum; D6, Dd2 and Tm90.C2B): low nanomolar range

Structure (SMILES): CCCCCCCc1c(C)[nH]c2cc(OC)ccc2c1=O [ELQ-100, endochin, reference compound]
- cross-resistance / sensitivity of atovaquone-resistant Tm90.C2B (in words) [1]: modest level of ATV cross-resistance
- IC50 (P. falciparum): ~3 nM

Structure (SMILES): CCCCCCCc1c(C)[nH]c2cc(F)cc(F)c2c1=O [ELQ-121, 2-Methyl-3-(n-heptyl)-5.7-difluorquinolone]
- in vitro antiplasmodial activity (SAR remark in words) (P. falciparum): one of the most potent compounds in the tested series

Structure (SMILES): CCCCCCCc1c(C)nc2cc(F)cc(F)c2c1OC(=O)OCCOCCOCCOCCOC [ELQ-125]
- water solubility [2]: improved water solubility
- parasite status on follow-up (P. yoelii; 25 mg/kg/day oral, 3 days, followed until euthanized 10 days later): remained parasite-free
- ED50 (P. yoelii; [5]): 11 mg/kg/day
- ED90 (P. yoelii; [5]): 22 mg/kg/day
- in vivo efficacy (in words) (P. yoelii; prodrug compared with ELQ-121): greatly enhanced in vivo efficacy

Structure (SMILES): CCCCCCCc1c(C)nc2cc(F)cc(F)c2c1Cl [ELQ-119]
- reduction of potency relative to ELQ-121 (P. falciparum): > 1,000 fold

Structure (SMILES): CCCCCCCc1c(C)n(C)c2cc(F)cc(F)c2c1=O [ELQ-134]
- growth inhibitory activity against Toxoplasma gondii (in words) [3]: enhanced growth inhibitory activity
- reduction of potency relative to ELQ-121 (P. falciparum): about 300 fold

Structure (SMILES): CCCCCCCc1c(C)[nH]c2c(F)cc(F)cc2c1=O [6,8-difluoro positional isomer]
- reduction of potency relative to ELQ-121 (P. falciparum): ≈ 2,000 fold

Structure (SMILES): CCCCCCCc1c(C)[nH]c2ccccc2c1=O [ELQ-127]
- in vitro antiplasmodial activity (SAR remark in words) (P. falciparum): equally active against all three parasite strains
- weakening of in vitro activity relative to endochin (P. falciparum; relative to endochin): roughly 5 fold

Structure (SMILES): CCCCCCCc1c(C)[nH]c2cc(Cl)ccc2c1=O [ELQ-109]
- in vitro antiplasmodial activity (SAR remark in words) (P. falciparum): only a modest reduction in in vitro potency

Structure (SMILES): CCCCCCCc1c(O)[nH]c2cc(OC)ccc2c1=O [ELQ-106]
- IC50 [4]: > 2500 nM

Structure (SMILES): CCCCCCCc1c(C)[nH]c2ccc(Cl)cc2c1=O [ELQ-130]
- cross-resistance / sensitivity of atovaquone-resistant Tm90.C2B (in words) [1]: equal sensitivity
- in vitro antiplasmodial activity (SAR remark in words) (P. falciparum): modest reduction in antimalarial response

Structure (SMILES): CCCCCCCc1c(C)[nH]c2cc(O)ccc2c1=O [ELQ-117]
- in vitro antiplasmodial activity (SAR remark in words) (P. falciparum): greatly diminishes antiplasmodial activity

Structure (SMILES): CCCCCCCc1c(C)[nH]c2cc(Cl)cc(Cl)c2c1=O [ELQ-124]
- in vitro antiplasmodial activity (SAR remark in words) (P. falciparum): weak in vitro activity

Structure (SMILES): CCCCc1c(C)[nH]c2cc(OC)ccc2c1=O [ELQ-115]
- IC50 (P. falciparum): ~30 nM
